System: MV-4-11 cells
Assay: Gene expression microarray analysis (Affymetrix PrimeView) and GSEA
Assay type: cell-based, human
Parameters: RFU PODN (11730768_x_at) / Fold change /veh PODN (11730768_x_at) / RFU LINC00158 (11744669_a_at) / Fold change /veh LINC00158 (11744669_a_at) / RFU DUSP10 (11751237_a_at) / Fold change /veh DUSP10 (11751237_a_at) / RFU ID3 (11757404_x_at) / Fold change /veh ID3 (11757404_x_at) / RFU PLEKHG5 (11737974_s_at) / Fold change /veh PLEKHG5 (11737974_s_at) / RFU LRRC4B (11730491_at) / Fold change /veh LRRC4B (11730491_at) / RFU GIMAP4 (11747438_a_at) / Fold change /veh GIMAP4 (11747438_a_at) / RFU KRT8 (11758183_x_at) / Fold change /veh KRT8 (11758183_x_at) / RFU CNN1 (11734310_a_at) / Fold change /veh CNN1 (11734310_a_at) / RFU VPS37D (11726825_at) / Fold change /veh VPS37D (11726825_at) / RFU C10orf10 (11716522_x_at) / Fold change /veh C10orf10 (11716522_x_at) / RFU KIR2DL2 /// KIR2DL4 /// KIR2DL5A /// KIR2DL5B /// KIR2DS1 /// KIR2DS2 /// KIR2DS3 /// KIR2DS4 /// KIR3DL3 /// KIR3DL3 /// KIR3DS1 (11738374_at) / Fold change /veh KIR2DL2 /// KIR2DL4 /// KIR2DL5A /// KIR2DL5B /// KIR2DS1 /// KIR2DS2 /// KIR2DS3 /// KIR2DS4 /// KIR3DL3 /// KIR3DL3 /// KIR3DS1 (11738374_at) / RFU C1QL1 (11718748_at) / Fold change /veh C1QL1 (11718748_at) / RFU TMPRSS4 (11747572_a_at) / Fold change /veh TMPRSS4 (11747572_a_at) / RFU HAMP (11756126_x_at) / Fold change /veh HAMP (11756126_x_at) / RFU RNFT2 (11725882_a_at) / Fold change /veh RNFT2 (11725882_a_at) / RFU NR4A2 (11747474_a_at) / Fold change /veh NR4A2 (11747474_a_at) / RFU ABCC12 (11746883_a_at) / Fold change /veh ABCC12 (11746883_a_at) / RFU TMEM136 (11760407_x_at) / Fold change /veh TMEM136 (11760407_x_at) / RFU CLDN22 /// WWC2 (11732394_at) / Fold change /veh CLDN22 /// WWC2 (11732394_at) / RFU HLA-DPB1 (11760878_x_at) / Fold change /veh HLA-DPB1 (11760878_x_at) / RFU SPINT1 (11716480_a_at) / Fold change /veh SPINT1 (11716480_a_at) / RFU GAP43 (11754022_s_at) / Fold change /veh GAP43 (11754022_s_at) / RFU A4GNT (11735810_at) / Fold change /veh A4GNT (11735810_at) / RFU PRB3 (11715151_x_at) / Fold change /veh PRB3 (11715151_x_at) / RFU TUBB4B (11761932_at) / Fold change /veh TUBB4B (11761932_at) / RFU CAPN14 (11732068_a_at) / Fold change /veh CAPN14 (11732068_a_at) / RFU TMCC2 (11721928_a_at) / Fold change /veh TMCC2 (11721928_a_at) / RFU IRGQ (11745062_a_at) / Fold change /veh IRGQ (11745062_a_at) / RFU FAM174B (11720279_a_at) / Fold change /veh FAM174B (11720279_a_at) / RFU TMPRSS4 (11748680_a_at) / Fold change /veh TMPRSS4 (11748680_a_at) / RFU FAM212B (11763350_a_at) / Fold change /veh FAM212B (11763350_a_at) / RFU PLEKHG5 (11743358_a_at) / Fold change /veh PLEKHG5 (11743358_a_at) / RFU ZSCAN30 (11745921_a_at) / Fold change /veh ZSCAN30 (11745921_a_at) / RFU CMKLR1 (11741424_a_at) / Fold change /veh CMKLR1 (11741424_a_at) / RFU LOC101060620 /// MAPK8IP1 (11723275_at) / Fold change /veh LOC101060620 /// MAPK8IP1 (11723275_at) / RFU SPTSSB (11747773_x_at) / Fold change /veh SPTSSB (11747773_x_at) / RFU PRSS12 (11739890_at) / Fold change /veh PRSS12 (11739890_at) / RFU BIN1 (11741810_x_at) / Fold change /veh BIN1 (11741810_x_at) / RFU WNT11 (11732464_a_at) / Fold change /veh WNT11 (11732464_a_at) / RFU C10orf10 (11716521_a_at) / Fold change /veh C10orf10 (11716521_a_at) / RFU C5orf56 (11738089_at) / Fold change /veh C5orf56 (11738089_at) / RFU CYB561 (11721691_x_at) / Fold change /veh CYB561 (11721691_x_at) / RFU ANKRD19P (11752326_a_at) / Fold change /veh ANKRD19P (11752326_a_at) / RFU OR2T12 /// OR2T33 /// OR2T8 (11738714_s_at) / Fold change /veh OR2T12 /// OR2T33 /// OR2T8 (11738714_s_at) / RFU VCAN (11748164_a_at) / Fold change /veh VCAN (11748164_a_at) / RFU JSRP1 (11732532_at) / Fold change /veh JSRP1 (11732532_at) / RFU KRTAP10-11 (11738290_x_at) / Fold change /veh KRTAP10-11 (11738290_x_at) / RFU MYO3A (11730013_a_at) / Fold change /veh MYO3A (11730013_a_at) / RFU EBF3 (11725865_a_at) / Fold change /veh EBF3 (11725865_a_at) / RFU CAMK2N1 (11719241_x_at) / Fold change /veh CAMK2N1 (11719241_x_at) / RFU C5orf56 (11738088_a_at) / Fold change /veh C5orf56 (11738088_a_at) / RFU OLFML3 (11715873_a_at) / Fold change /veh OLFML3 (11715873_a_at) / RFU LOC100653217 /// NTM (11731650_a_at) / Fold change /veh LOC100653217 /// NTM (11731650_a_at) / RFU MAPK11 (11762145_a_at) / Fold change /veh MAPK11 (11762145_a_at) / RFU FIZ1 (11724087_x_at) / Fold change /veh FIZ1 (11724087_x_at) / RFU OASL (11726364_x_at) / Fold change /veh OASL (11726364_x_at) / RFU SOX15 (11748057_x_at) / Fold change /veh SOX15 (11748057_x_at) / RFU CD79A (11719716_a_at) / Fold change /veh CD79A (11719716_a_at) / RFU HIST1H1D (11736915_at) / Fold change /veh HIST1H1D (11736915_at) / RFU CASKIN2 (11723855_a_at) / Fold change /veh CASKIN2 (11723855_a_at) / RFU LOC730098 (11760151_x_at) / Fold change /veh LOC730098 (11760151_x_at) / RFU OR4N2 (11742367_at) / Fold change /veh OR4N2 (11742367_at) / RFU PRRT2 (11749266_a_at) / Fold change /veh PRRT2 (11749266_a_at) / RFU SNX32 (11753110_a_at) / Fold change /veh SNX32 (11753110_a_at) / RFU CDHR5 (11726645_a_at) / Fold change /veh CDHR5 (11726645_a_at) / RFU RCAN1 (11760418_a_at) / Fold change /veh RCAN1 (11760418_a_at) / RFU FAM167A (11723789_a_at) / Fold change /veh FAM167A (11723789_a_at) / RFU FAM26E (11764081_at) / Fold change /veh FAM26E (11764081_at) / RFU ISYNA1 (11749810_s_at) / Fold change /veh ISYNA1 (11749810_s_at) / RFU ACY1 (11761880_at) / Fold change /veh ACY1 (11761880_at) / RFU 11764098_at / Fold change /veh 11764098_at / RFU SAMD14 (11745864_x_at) / Fold change /veh SAMD14 (11745864_x_at) / RFU NPB (11741838_a_at) / Fold change /veh NPB (11741838_a_at) / RFU TMPRSS6 (11731388_a_at) / Fold change /veh TMPRSS6 (11731388_a_at) / RFU KRTAP10-2 (11738614_at) / Fold change /veh KRTAP10-2 (11738614_at) / RFU ARHGAP8 /// PRR5-ARHGAP8 (11727945_x_at) / Fold change /veh ARHGAP8 /// PRR5-ARHGAP8 (11727945_x_at) / RFU KRTAP5-7 /// NADSYN1 (11734609_at) / Fold change /veh KRTAP5-7 /// NADSYN1 (11734609_at) / RFU RASL12 (11751679_a_at) / Fold change /veh RASL12 (11751679_a_at) / RFU CDKN2B (11736163_a_at) / Fold change /veh CDKN2B (11736163_a_at) / RFU PRF1 (11729649_at) / Fold change /veh PRF1 (11729649_at) / RFU, ZNF638 /// ZNF638-IT1 / Fold change vs veh, ZNF638 /// ZNF638-IT1 / RFU, PANK3 / Fold change vs veh, PANK3 / RFU, SH3YL1 / Fold change vs veh, SH3YL1 / RFU, ZEB2 / Fold change vs veh, ZEB2 / RFU, NRIP1 / Fold change vs veh, NRIP1 / RFU, PTTG1IP / Fold change vs veh, PTTG1IP / RFU, CAPN2 / Fold change vs veh, CAPN2 / RFU, MED14 / Fold change vs veh, MED14 / RFU, SNORA58 / Fold change vs veh, SNORA58 / RFU, C1orf63 / Fold change vs veh, C1orf63 / RFU, LRRFIP1 / Fold change vs veh, LRRFIP1 / RFU, NDUFAF7 / Fold change vs veh, NDUFAF7 / RFU, SLC12A2 / Fold change vs veh, SLC12A2 / RFU, IBTK / Fold change vs veh, IBTK / RFU, ESF1 / Fold change vs veh, ESF1 / Fold change vs veh, TMEM50B / RFU, TAOK1 / Fold change vs veh, TAOK1 / RFU, ACBD3 / Fold change vs veh, ACBD3 / RFU, TMA16 / Fold change vs veh, TMA16 / RFU, RWDD3 / Fold change vs veh, RWDD3 / RFU, BCAT1 / Fold change vs veh, BCAT1 / RFU, EDEM3 / Fold change vs veh, EDEM3 / RFU, TMEM33 / Fold change vs veh, TMEM33 / RFU, WDR75 / Fold change vs veh, WDR75 / RFU, AHCTF1 / Fold change vs veh, AHCTF1 / RFU, TFRC / Fold change vs veh, TFRC / RFU, ZDHHC17 / Fold change vs veh, ZDHHC17 / RFU, NOM1 / Fold change vs veh, NOM1 / RFU, ARL8B / Fold change vs veh, ARL8B / RFU, ZBTB11 / Fold change vs veh, ZBTB11 / RFU, TAMM41 / Fold change vs veh, TAMM41 / RFU, KIAA1704 /// LOC100996395 / Fold change vs veh, KIAA1704 /// LOC100996395 / RFU, ING1 / Fold change vs veh, ING1 / RFU, TRMT61B / Fold change vs veh, TRMT61B / RFU, FUBP3 / Fold change vs veh, FUBP3 / RFU, TP53 / Fold change vs veh, TP53 / RFU, TNKS2 / Fold change vs veh, TNKS2 / RFU, ZFP14 / Fold change vs veh, ZFP14 / RFU, ACTR2 / Fold change vs veh, ACTR2 / RFU, PPP3R1 / Fold change vs veh, PPP3R1 / RFU, PIK3R1 / Fold change vs veh, PIK3R1 / RFU, HNRNPA1 / Fold change vs veh, HNRNPA1 / RFU, RNF170 / Fold change vs veh, RNF170 / RFU, ZNF28 / Fold change vs veh, ZNF28 / RFU, RNGTT / Fold change vs veh, RNGTT / RFU, OGT / Fold change vs veh, OGT / RFU, BRD1 / Fold change vs veh, BRD1 / RFU, MARS / Fold change vs veh, MARS / RFU, ZNF655 / Fold change vs veh, ZNF655 / RFU, FAHD1 / Fold change vs veh, FAHD1 / RFU, BDP1 / Fold change vs veh, BDP1 / RFU, LRRCC1 / Fold change vs veh, LRRCC1 / RFU, ARID1A / Fold change vs veh, ARID1A / RFU, ZNF146 / Fold change vs veh, ZNF146 / RFU, ZNF330 / Fold change vs veh, ZNF330 / RFU, GPN3 / Fold change vs veh, GPN3 / RFU, C9orf123 / Fold change vs veh, C9orf123 / RFU, N4BP2L2 / Fold change vs veh, N4BP2L2 / RFU, ARFIP1 / Fold change vs veh, ARFIP1 / RFU, FAM179B / Fold change vs veh, FAM179B / RFU, BCL10 / Fold change vs veh, BCL10 / RFU, UHRF1BP1L / Fold change vs veh, UHRF1BP1L / RFU, BET1 / Fold change vs veh, BET1 / RFU, CNOT2 / Fold change vs veh, CNOT2 / RFU, ZNF268 / Fold change vs veh, ZNF268 / Fold change vs veh, ZNF507 / RFU, DGCR2 / Fold change vs veh, DGCR2 / RFU, WDSUB1 / Fold change vs veh, WDSUB1 / Fold change vs veh, HSP90B1 /// MIR3652 / RFU, ADSS / Fold change vs veh, ADSS / RFU, GK / Fold change vs veh, GK / RFU, ZNF148 / Fold change vs veh, ZNF148 / RFU, TAF9 / Fold change vs veh, TAF9 / RFU, SLC1A5 / Fold change vs veh, SLC1A5 / RFU, SLMO2 / Fold change vs veh, SLMO2 / RFU, ABCC4 / Fold change vs veh, ABCC4 / RFU, LOC101060439 /// RAP1B / Fold change vs veh, LOC101060439 /// RAP1B / RFU, RFX7 / Fold change vs veh, RFX7 / RFU, GTPBP10 / Fold change vs veh, GTPBP10 / RFU, CNEP1R1 / Fold change vs veh, CNEP1R1 / RFU, BIVM-ERCC5 /// ERCC5 / Fold change vs veh, BIVM-ERCC5 /// ERCC5 / RFU, ILF3 / Fold change vs veh, ILF3 / RFU 11762660_at / Fold change /veh 11762660_at / RFU VCAN (11757783_s_at) / Fold change /veh VCAN (11757783_s_at) / RFU DDX43 (11728927_at) / Fold change /veh DDX43 (11728927_at) / RFU KRT8 (11758188_x_at) / Fold change /veh KRT8 (11758188_x_at) / RFU NKD1 (11759106_at) / Fold change /veh NKD1 (11759106_at) / RFU SRD5A1 (11742802_a_at) / Fold change /veh SRD5A1 (11742802_a_at) / RFU TPSAB1 /// TPSB2 (11721975_s_at) / Fold change /veh TPSAB1 /// TPSB2 (11721975_s_at) / RFU GSTM3 (11746129_a_at) / Fold change /veh GSTM3 (11746129_a_at) / RFU IL23R (11737362_x_at) / Fold change /veh IL23R (11737362_x_at) / RFU TMEM51 (11727254_a_at) / Fold change /veh TMEM51 (11727254_a_at) / RFU PIWIL2 (11732686_x_at) / Fold change /veh PIWIL2 (11732686_x_at) / RFU ORM1 (11744905_x_at) / Fold change /veh ORM1 (11744905_x_at) / RFU CCDC152 (11743942_at) / Fold change /veh CCDC152 (11743942_at) / RFU ECM1 (11717891_a_at) / Fold change /veh ECM1 (11717891_a_at) / RFU IL23R (11748794_a_at) / Fold change /veh IL23R (11748794_a_at) / RFU TNFAIP8L3 (11732012_x_at) / Fold change /veh TNFAIP8L3 (11732012_x_at) / RFU MBOAT4 (11741988_at) / Fold change /veh MBOAT4 (11741988_at) / RFU 11764193_at / Fold change /veh 11764193_at / RFU TMEM53 (11763286_at) / Fold change /veh TMEM53 (11763286_at) / RFU MAGEB2 (11727129_at) / Fold change /veh MAGEB2 (11727129_at) / RFU TMEM200A (11744735_a_at) / Fold change /veh TMEM200A (11744735_a_at) / RFU CCDC152 (11751479_a_at) / Fold change /veh CCDC152 (11751479_a_at) / RFU FAM211A (11726209_a_at) / Fold change /veh FAM211A (11726209_a_at) / RFU RGS16 (11746705_a_at) / Fold change /veh RGS16 (11746705_a_at) / RFU VCAN (11755009_s_at) / Fold change /veh VCAN (11755009_s_at) / RFU RHOB (11743442_s_at) / Fold change /veh RHOB (11743442_s_at) / RFU RGS16 (11720943_a_at) / Fold change /veh RGS16 (11720943_a_at) / RFU RGS16 (11720944_at) / Fold change /veh RGS16 (11720944_at) / RFU, VPS4B / Fold change vs veh, VPS4B / RFU, CREB1 / Fold change vs veh, CREB1 / RFU, DNAJC13 / Fold change vs veh, DNAJC13 / RFU, GNAQ / Fold change vs veh, GNAQ / RFU, CDK5R1 / Fold change vs veh, CDK5R1 / RFU, ZRANB3 / Fold change vs veh, ZRANB3 / RFU, CUL4A / Fold change vs veh, CUL4A / RFU, CCNY / Fold change vs veh, CCNY / RFU, UFL1 / Fold change vs veh, UFL1 / RFU, COG3 / Fold change vs veh, COG3 / RFU, DIAPH2 / Fold change vs veh, DIAPH2 / RFU, SKA2 / Fold change vs veh, SKA2 / RFU, AFF3 / Fold change vs veh, AFF3 / RFU, LMF1 / Fold change vs veh, LMF1 / RFU, IPO11 / Fold change vs veh, IPO11 / RFU, DFFB / Fold change vs veh, DFFB / RFU, FOXP1 / Fold change vs veh, FOXP1 / RFU, CARD8 / Fold change vs veh, CARD8 / RFU, STRN3 / Fold change vs veh, STRN3 / RFU, ADK / Fold change vs veh, ADK / RFU, RASSF2 / Fold change vs veh, RASSF2 / RFU, WIPF1 / Fold change vs veh, WIPF1 / RFU, LARP1B / Fold change vs veh, LARP1B / RFU, RASA1 / Fold change vs veh, RASA1 / RFU, RB1 / Fold change vs veh, RB1 / RFU, PPFIA1 / Fold change vs veh, PPFIA1 / RFU, MAT2A / Fold change vs veh, MAT2A / RFU, CCT5 / Fold change vs veh, CCT5 / RFU, WDR92 / Fold change vs veh, WDR92 / RFU, CUX1 / Fold change vs veh, CUX1 / RFU, TTC7A / Fold change vs veh, TTC7A / RFU, TMEM135 / Fold change vs veh, TMEM135 / RFU, DEPTOR / Fold change vs veh, DEPTOR / RFU, CPM / Fold change vs veh, CPM / RFU, DNAJB6 / Fold change vs veh, DNAJB6 / RFU, CACNA2D3 / Fold change vs veh, CACNA2D3 / RFU, DTX4 / Fold change vs veh, DTX4 / RFU, TFCP2 / Fold change vs veh, TFCP2 / RFU, GMCL1 /// GMCL1P1 / Fold change vs veh, GMCL1 /// GMCL1P1 / RFU, AEBP2 / Fold change vs veh, AEBP2 / RFU, SNHG1 /// SNORD22 /// SNORD25 /// SNORD26 /// SNORD27 /// SNORD28 /// SNORD29 /// SNORD31 / Fold change vs veh, SNHG1 /// SNORD22 /// SNORD25 /// SNORD26 /// SNORD27 /// SNORD28 /// SNORD29 /// SNORD31 / Fold change (Aza/veh), C12orf56 (ProbeSet 11735607_a_at) / Fold change (ACY-1035/veh), C12orf56 (ProbeSet 11735607_a_at) / Fold change (Aza/veh), FGFR1OP (ProbeSet 11751329_s_at) / Fold change (ACY-1035/veh), FGFR1OP (ProbeSet 11751329_s_at) / Fold change (Aza/veh), VPS36 (ProbeSet 11739960_a_at) / Fold change (ACY-1035/veh), VPS36 (ProbeSet 11739960_a_at) / RFU SYPL1 (11715823_x_at) / Fold change /veh SYPL1 (11715823_x_at) / RFU IGFBP7 (11715501_s_at) / Fold change /veh IGFBP7 (11715501_s_at) / RFU REEP3 (11722064_at) / Fold change /veh REEP3 (11722064_at) / RFU IGLL1 (11728026_x_at) / Fold change /veh IGLL1 (11728026_x_at): dose or concentration left out as unconfirmed
Settings: ProbeSet 11727827_x_at; LIST B

Compound: Nc1ncn([C@@H]2O[C@H](CO)[C@@H](O)[C@H]2O)c(=O)n1 [azacitidine]
- Fold change vs veh, NDUFAF7: 0.98

Source: publication PMC5218480 (PLoS ONE, 2017)
